Source: US10463669B2, “Composition for treating or preventing liver cancer” (Seoul National University R&DB Foundation, priority 2016, dated 2019)

Columns and labels:
Format in all cases: cell-based, human
[1] = system: AKT phosphorylation in HCC cell lines (Huh7 and Hep3B); test: AKT phosphorylation, immunoblot assay; conditions: HCC cells
Experimental: Medium was exchanged every day, and the aforementioned cells were cultured for 4 days in 300 μmol/L hydrogen peroxide (H2O2) (Sigma Aldrich; H1009). In several experiments, the cells were treated for 1 hour with 5 mmol/L N-acetylcysteine (NAC) (Sigma Aldrich; A7250), 25 μmol/L idelalisib (LC Laboratoties, Woburn, Mass., USA; I-7447), 25 μmol/L perifosine (LC Laboratoties, Woburn, Mass., USA; P-6522), or 30 μmol/L GSK3β inhibitor (GSK3β inhibitor XI) (Santa Cruz; sc-204770) (31) before adding H2O2. Furthermore, sterilized distilled water (pH 7.0) was used as a negative control (i.e., mock treatment).
Total 2×10^5 cells were boiled for 5 minutes in 2×SDS sample buffer (100 mmol/L TrisHCl [pH 6.8], 4% SDS, 0.2% bromophenol blue, 20% glycerol, and 200 mmol/L β-mercaptoethanol), and then subjected to SDS-PAGE and Western blotting. To detect the TERT, the cells were cultured in 2×SDS sample buffer for 15 minutes at 55° C. TERT-specific (1:300, Rockland Immunochemicals, Gilbertsville, Pa., USA; 600-401-252), AKT-specific (1:1000, Cell Signaling Technology; #9272), phospho-AKT-specific (1:2000, Cell Signaling Technology; #4060), GAPDH-specific (1:2000, Santa Cruz Biotechnology; sc-47724), or β-actin-specific (1:2000, Sigma-Aldrich, St. Louis, Mo., USA; A5441) antibody was diluted in 5% skim milk or bovine serum albumin with TBS-Tween 20, cultured overnight at 4° C., washed, and cultured with HRP-conjugated secondary antibody (1:1000, Abcam; ab131368, or ab131366). By using FUSION-SOLO imager (Vilber Lourmat, Marne La Vallee, France), a chemical fluorescence image was obtained.

[2] = system: telomerase activity in HCC cell lines (Huh7 and Hep3B); test: Telomerase activity, TRAP assay
Experimental: (§1) To have quantitative determination of the telomerase activity, TRAP assay was carried out by using TRAPEZE® RT Telomerase Detection Kit (Millipore, Darmstadt, Germany; […]). According to the manual, the whole protein extract (100 ng) was used for each reaction.

[3] = system: telomerase activity in THLE-3 cells; test: Telomerase activity, TRAP assay; conditions: 150 μmol/L H2O2-treated THLE-3 cells
Experimental: as §1

[4] = system: β-catenin and SetD1A binding to the TERT promoter in Huh7 cells; test: Chromatin immunoprecipitation (ChIP) at the TERT promoter; conditions: HCC (Huh7) cells, with or without 300 μmol/L H2O2
Experimental: As it has been described before (Lim S O, et al. Gastroenterology. 2008; 135: 2128-40, 40 el-8.; Hoffmeyer K, et al. Science. 2012; 336: 1549-54.), several modified ChIP (chromatin immunoprecipitation) tests were carried out. In the presence or absence of a PI3K inhibitor, an AKT inhibitor, or a GSK3β inhibitor, Huh7 cells were cultured for 4 days with or without a treatment of 300 μmol/L H2O2. Under mild shaking for 20 minutes at room temperature, the cells were fixed by using 1% paraformaldehyde. After that, the cells were rinsed twice with ice-cold PBS; resuspended with 400 μL of micrococcal nuclease buffer (50 mmol/L TrisHCl [pH 8.0], 5 mmol/L CaC12, 100 μg/mL BSA, 10 mmol/L KCl, and protease inhibitor cocktail [Roche, Basel, Switzerland; 4693159001]); and disrupted with 2 mm-diameter zirconium beads (Watson); to have micrococcal nuclease digestion (New England Biolabs, Beverly, Mass., USA; M0247S). Chromatin (150 μg) was collected and diluted in a dilution buffer (0.1% NP-40, 2 mmol/L EDTA, 150 mmol/L NaCl, 20 mmol/L TrisHCl [pH 8.0], protease inhibitor cocktail [Roche]), and a phosphatase inhibitor cocktail [Calbiochem]), and then subjected to pre-clearing with 2 μg digested salmon sperm DNA, 10 μL preimmune serum (Santa Cruz Biotechnology; sc-2027), and Dynabeads Protein G (Life Technologies; 1004D) for 2 hours at 4° C. After the immunoprecipitation, 20 μL of Dynabeads Protein G were added thereto and the culture was continued for 2 hours. The Dynabeads were washed continuously for 10 minutes with TSE 1 (0.1% SDS, 1% Triton X-100, 2 mmol/L EDTA, 20 mmol/L TrisHCl, and 150 mmol/L NaCl), TSE II (0.1% SDS, 1% Triton X-100, 2 mmol/L EDTA, 20 mmol/L TrisHCl, and 500 mmol/L NaCl), and buffer III (0.25 mol/L LiCl, 1% NP-40, 1% deoxycholate, 1 mmol/L EDTA, and 10 mmol/L TrisHCl). After that, the beads were washed 3 times with TE buffer, and extraction was made by using 1% SDS and 0.1 mol/L NaHCO3. To have reverse formaldehyde cross-linking, the elution solution was heated overnight at 65° C. By using NucleoSpin DNA clean-up kit, DNA debris were purified. By using primers specific to the TERT promoter region, the PCR amplified product was quantified by qPCR (ABI 7300; Applied Biosystems, Foster City, Calif., USA). The PCR amplification was normalized against the TERT intron. The primer sequences are as follows: β-catenin interaction site for ChIP (forward primer: TCCCGGGTCCCCGGCCCA (SEQ ID NO:8); reverse primer: […] (SEQ ID NO:9)) and TERT intron for ChIP (forward primer: […] (SEQ ID NO:10); reverse primer: […] (SEQ ID NO:11)). For each of the β-catenin interaction site which has been recorded before, 20-22 bp were added. The antibodies that are used are as follows: rabbit polyclonal anti-β-catenin (1:200, Abcam, Cambridge, Mass., USA; ab6302), mouse monoclonal anti-RNA polymerase II (1:50, Covance, Princeton, N.J., USA; MMS-126R), and rabbit polyclonal anti-SETD1A (1:100, Novus Biologicals, Littleton, Colo., USA; NBP1-81513).
Inventors of the present invention made an investigation to see whether or not the increased chromatin accessibility in TERT promoter during TERT transcription is related with β-catenin. To do so, by using intrinsic β-catenin and an antibody against histone methyl transferase SetD1A which has been reported to promote the TERT transcription based on chromatin remodeling, chromatin immunoprecipitation was carried out. When a PI3K or AKT inhibitor is treated together for chromatin immunoprecipitation, β-catenin and SetD1A, which bind to the TERT promoter in HCC cells, were reduced even in the presence of H2O2 (FIGS. 3A and 3B). However, when the treatment is carried out also with a GSK3p inhibitor, increased binding of β-catenin and SetD1A was shown regardless of a treatment with H2O2 (FIG. 3C).

Structure (SMILES): CC[C@H](Nc1ncnc2nc[nH]c12)c1nc2cccc(F)c2c(=O)n1-c1ccccc1 [idelalisib, 5-fluoro-3-phenyl-2-[(1S)-1-(7H-purin-6-ylamino)propyl]-4(3H)-quinazolinone]
- pAKT [1]: inhibit
- telomerase activity ([2]; 300 μmol/L H2O2-treated HCC cell lines): reduced
- ROS-mediated increase in telomerase activity ([2]; H2O2-treated cells): almost completely inhibited
- telomerase activity [3]: not
- SetD1A binding to the TERT promoter [4]: reduced
- β-catenin binding to the TERT promoter [4]: reduced
